Experimental data taken from ChEMBL document CHEMBL1909294, “Translating clinical findings into knowledge in drug safety evaluation--drug induced liver injury prediction system (DILIps)” (PLoS Comput Biol, 2011).

Experiments:
Hepatotoxicity [1] = test system: Hepatotoxicity;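 for HepSE cholecystitis: Cholecystitis-related hepatic side effect score drawn from the DILIps (drug-induced liver injury prediction) training data set; call rule not given here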;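 for HepSE cirrhosis: cirrhosis hepatic side effect score taken from the DILIps (drug-induced liver injury prediction) training set; call rule not given here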;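 for HepSE elevated liver function tests: hepatic side effect score for raised liver function tests, as recorded in the DILIps training set used for predicting drug-induced liver injury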; for HepSE hepatic failure: call rule not given here;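 for HepSE hepatic necrosis: score of hepatic side effects for hepatic necrosis, drawn from the training data of DILIps, a prediction system for drug-induced liver injury; call rule not given here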; for HepSE liver disease: call rule not given here;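 for HepSE liver function tests abnormal: hepatic side effect score taken from the DILIps (drug-induced liver injury prediction system) training data, here covering abnormal liver function test findings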
Hepatotoxicity [2] = test system: Hepatotoxicity; remark: listed apart in the source;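 for HepSE cholecystitis: Cholecystitis-related hepatic side effect score drawn from the DILIps (drug-induced liver injury prediction) training data set; call rule not given here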;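 for HepSE cirrhosis: cirrhosis hepatic side effect score taken from the DILIps (drug-induced liver injury prediction) training set; call rule not given here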;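 for HepSE elevated liver function tests: hepatic side effect score for raised liver function tests, as recorded in the DILIps training set used for predicting drug-induced liver injury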; for HepSE hepatic failure: call rule not given here;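 for HepSE hepatic necrosis: score of hepatic side effects for hepatic necrosis, drawn from the training data of DILIps, a prediction system for drug-induced liver injury; call rule not given here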; for HepSE liver disease: call rule not given here;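 for HepSE liver function tests abnormal: hepatic side effect score taken from the DILIps (drug-induced liver injury prediction system) training data, here covering abnormal liver function test findings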
Hepatotoxicity [3] = test system: Hepatotoxicity; remark: listed apart in the source;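 for HepSE cholecystitis: Cholecystitis-related hepatic side effect score drawn from the DILIps (drug-induced liver injury prediction) training data set; call rule not given here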;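 for HepSE elevated liver function tests: hepatic side effect score for raised liver function tests, as recorded in the DILIps training set used for predicting drug-induced liver injury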; for HepSE hepatic failure: call rule not given here;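 for HepSE hepatic necrosis: score of hepatic side effects for hepatic necrosis, drawn from the training data of DILIps, a prediction system for drug-induced liver injury; call rule not given here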; for HepSE liver disease: call rule not given here;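 for HepSE liver function tests abnormal: hepatic side effect score taken from the DILIps (drug-induced liver injury prediction system) training data, here covering abnormal liver function test findings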
Hepatotoxicity [4] = test system: Hepatotoxicity; remark: listed apart in the source;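 for HepSE cholecystitis: Cholecystitis-related hepatic side effect score drawn from the DILIps (drug-induced liver injury prediction) training data set; call rule not given here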;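 for HepSE elevated liver function tests: hepatic side effect score for raised liver function tests, as recorded in the DILIps training set used for predicting drug-induced liver injury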; for HepSE hepatic failure: call rule not given here;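 for HepSE hepatic necrosis: score of hepatic side effects for hepatic necrosis, drawn from the training data of DILIps, a prediction system for drug-induced liver injury; call rule not given here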; for HepSE liver disease: call rule not given here;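 for HepSE liver function tests abnormal: hepatic side effect score taken from the DILIps (drug-induced liver injury prediction system) training data, here covering abnormal liver function test findings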
Hepatotoxicity [5] = test system: Hepatotoxicity; remark: listed apart in the source; for HepSE hepatic failure: call rule not given here; for HepSE liver disease: call rule not given here
Hepatotoxicity [6] = test system: Hepatotoxicity; remark: listed apart in the source; for HepSE hepatic failure: call rule not given here; for HepSE liver disease: call rule not given here
Hepatotoxicity [7] = test system: Hepatotoxicity; remark: listed apart in the source
Hepatotoxicity [8] = test system: Hepatotoxicity; remark: listed apart in the source
Hepatotoxicity [9] = test system: Hepatotoxicity; remark: listed apart in the source
Hepatotoxicity [10] = test system: Hepatotoxicity; remark: listed apart in the source
Hepatotoxicity [11] = test system: Hepatotoxicity; remark: listed apart in the source
Hepatotoxicity [12] = test system: Hepatotoxicity; remark: listed apart in the source
Hepatotoxicity [13] = test system: Hepatotoxicity; remark: listed apart in the source
Hepatotoxicity [14] = test system: Hepatotoxicity; remark: listed apart in the source

Compound: O.O=P(O)(O)C(O)(Cn1ccnc1)P(=O)(O)O [ZOLEDRONIC ACID]
- HepSE_liver disease (Hepatotoxicity [1]): 0
- HepSE_hepatic necrosis (Hepatotoxicity [2]): 0
- HepSE_cholecystitis (Hepatotoxicity [3]): 0
- HepSE_hepatic failure (Hepatotoxicity [4]): 0
- HepSE_elevated liver function tests (Hepatotoxicity [5]): 0
- HepSE_liver function tests abnormal (Hepatotoxicity [6]): 1
- HepSE_cirrhosis (Hepatotoxicity [7]): 0
- HepSE_liver fatty (Hepatotoxicity [8]): 0
- HepSE_hepatitis (Hepatotoxicity [9]): 0
- HepSE_jaundice (Hepatotoxicity [10]): 0
- HepSE_cholelithiasis (Hepatotoxicity [11]): 0
- HepSE_bilirubinemia (Hepatotoxicity [12]): 0
- HepSE_Combined Scores (Hepatotoxicity [13]): 1
- HepSE_hepatomegaly (Hepatotoxicity [14]): 0

Compound: CN(C)CCc1c[nH]c2ccc(C[C@H]3COC(=O)N3)cc12 [ZOLMITRIPTAN]
- HepSE_liver disease (Hepatotoxicity [1]): 1
- HepSE_hepatic necrosis (Hepatotoxicity [2]): 0
- HepSE_cholecystitis (Hepatotoxicity [3]): 0
- HepSE_hepatic failure (Hepatotoxicity [4]): 0
- HepSE_elevated liver function tests (Hepatotoxicity [5]): 0
- HepSE_liver function tests abnormal (Hepatotoxicity [6]): 0
- HepSE_cirrhosis (Hepatotoxicity [7]): 0
- HepSE_liver fatty (Hepatotoxicity [8]): 0
- HepSE_hepatitis (Hepatotoxicity [9]): 0
- HepSE_jaundice (Hepatotoxicity [10]): 1
- HepSE_cholelithiasis (Hepatotoxicity [11]): 0
- HepSE_bilirubinemia (Hepatotoxicity [12]): 0
- HepSE_Combined Scores (Hepatotoxicity [13]): 2
- HepSE_hepatomegaly (Hepatotoxicity [14]): 0

Compound: Cc1ccc(-c2nc3ccc(C)cn3c2CC(=O)N(C)C)cc1 [ZOLPIDEM]
- HepSE_liver disease (Hepatotoxicity [1]): 0
- HepSE_hepatic necrosis (Hepatotoxicity [2]): 0
- HepSE_cholecystitis (Hepatotoxicity [3]): 0
- HepSE_hepatic failure (Hepatotoxicity [4]): 0
- HepSE_elevated liver function tests (Hepatotoxicity [5]): 0
- HepSE_liver function tests abnormal (Hepatotoxicity [6]): 0
- HepSE_cirrhosis (Hepatotoxicity [7]): 0
- HepSE_liver fatty (Hepatotoxicity [8]): 0
- HepSE_hepatitis (Hepatotoxicity [9]): 0
- HepSE_jaundice (Hepatotoxicity [10]): 0
- HepSE_cholelithiasis (Hepatotoxicity [11]): 0
- HepSE_bilirubinemia (Hepatotoxicity [12]): 1
- HepSE_Combined Scores (Hepatotoxicity [13]): 1
- HepSE_hepatomegaly (Hepatotoxicity [14]): 0

Compound: NS(=O)(=O)Cc1noc2ccccc12 [ZONISAMIDE]
- HepSE_liver disease (Hepatotoxicity [1]): 0
- HepSE_hepatic necrosis (Hepatotoxicity [2]): 0
- HepSE_cholecystitis (Hepatotoxicity [3]): 1
- HepSE_hepatic failure (Hepatotoxicity [4]): 0
- HepSE_elevated liver function tests (Hepatotoxicity [5]): 0
- HepSE_liver function tests abnormal (Hepatotoxicity [6]): 0
- HepSE_cirrhosis (Hepatotoxicity [7]): 0
- HepSE_liver fatty (Hepatotoxicity [8]): 0
- HepSE_hepatitis (Hepatotoxicity [9]): 0
- HepSE_jaundice (Hepatotoxicity [10]): 1
- HepSE_cholelithiasis (Hepatotoxicity [11]): 1
- HepSE_bilirubinemia (Hepatotoxicity [12]): 0
- HepSE_Combined Scores (Hepatotoxicity [13]): 3
- HepSE_hepatomegaly (Hepatotoxicity [14]): 0

Compound: CN1CCN(C(=O)OC2c3nccnc3C(=O)N2c2ccc(Cl)cn2)CC1 (stereo unspecified) [ZOPICLONE]
- HepSE_liver disease (Hepatotoxicity [1]): 0
- HepSE_hepatic necrosis (Hepatotoxicity [2]): 0
- HepSE_cholecystitis (Hepatotoxicity [3]): 0
- HepSE_hepatic failure (Hepatotoxicity [4]): 0
- HepSE_elevated liver function tests (Hepatotoxicity [5]): 0
- HepSE_liver function tests abnormal (Hepatotoxicity [6]): 0
- HepSE_cirrhosis (Hepatotoxicity [7]): 0
- HepSE_liver fatty (Hepatotoxicity [8]): 0
- HepSE_hepatitis (Hepatotoxicity [9]): 1
- HepSE_jaundice (Hepatotoxicity [10]): 0
- HepSE_cholelithiasis (Hepatotoxicity [11]): 1
- HepSE_bilirubinemia (Hepatotoxicity [12]): 0
- HepSE_Combined Scores (Hepatotoxicity [13]): 3
- HepSE_hepatomegaly (Hepatotoxicity [14]): 1

Compound: AURANOFIN
- HepSE_liver disease (Hepatotoxicity [1]): 0
- HepSE_hepatic necrosis (Hepatotoxicity [2]): 0
- HepSE_cholecystitis (Hepatotoxicity [3]): 0
- HepSE_hepatic failure (Hepatotoxicity [4]): 0
- HepSE_elevated liver function tests (Hepatotoxicity [5]): 0
- HepSE_liver function tests abnormal (Hepatotoxicity [6]): 0
- HepSE_cirrhosis (Hepatotoxicity [7]): 0
- HepSE_liver fatty (Hepatotoxicity [8]): 0
- HepSE_hepatitis (Hepatotoxicity [9]): 0
- HepSE_jaundice (Hepatotoxicity [10]): 1
- HepSE_cholelithiasis (Hepatotoxicity [11]): 0
- HepSE_bilirubinemia (Hepatotoxicity [12]): 0
- HepSE_Combined Scores (Hepatotoxicity [13]): 1
- HepSE_hepatomegaly (Hepatotoxicity [14]): 0

Compound: BLEOMYCIN
- HepSE_liver disease (Hepatotoxicity [1]): 0
- HepSE_hepatic necrosis (Hepatotoxicity [2]): 0
- HepSE_cholecystitis (Hepatotoxicity [3]): 0
- HepSE_hepatic failure (Hepatotoxicity [4]): 0
- HepSE_elevated liver function tests (Hepatotoxicity [5]): 0
- HepSE_liver function tests abnormal (Hepatotoxicity [6]): 0
- HepSE_cirrhosis (Hepatotoxicity [7]): 0
- HepSE_liver fatty (Hepatotoxicity [8]): 0
- HepSE_hepatitis (Hepatotoxicity [9]): 0
- HepSE_jaundice (Hepatotoxicity [10]): 0
- HepSE_cholelithiasis (Hepatotoxicity [11]): 0
- HepSE_bilirubinemia (Hepatotoxicity [12]): 0
- HepSE_Combined Scores (Hepatotoxicity [13]): 0
- HepSE_hepatomegaly (Hepatotoxicity [14]): 0

Compound: CARBOPLATIN
- HepSE_liver disease (Hepatotoxicity [1]): 0
- HepSE_hepatic necrosis (Hepatotoxicity [2]): 0
- HepSE_cholecystitis (Hepatotoxicity [3]): 0
- HepSE_hepatic failure (Hepatotoxicity [4]): 0
- HepSE_elevated liver function tests (Hepatotoxicity [5]): 0
- HepSE_liver function tests abnormal (Hepatotoxicity [6]): 1
- HepSE_cirrhosis (Hepatotoxicity [7]): 0
- HepSE_liver fatty (Hepatotoxicity [8]): 0
- HepSE_hepatitis (Hepatotoxicity [9]): 0
- HepSE_jaundice (Hepatotoxicity [10]): 0
- HepSE_cholelithiasis (Hepatotoxicity [11]): 0
- HepSE_bilirubinemia (Hepatotoxicity [12]): 0
- HepSE_Combined Scores (Hepatotoxicity [13]): 1
- HepSE_hepatomegaly (Hepatotoxicity [14]): 0

Compound: CISPLATIN
- HepSE_liver disease (Hepatotoxicity [1]): 0
- HepSE_hepatic necrosis (Hepatotoxicity [2]): 0
- HepSE_cholecystitis (Hepatotoxicity [3]): 0
- HepSE_hepatic failure (Hepatotoxicity [4]): 0
- HepSE_elevated liver function tests (Hepatotoxicity [5]): 0
- HepSE_liver function tests abnormal (Hepatotoxicity [6]): 0
- HepSE_cirrhosis (Hepatotoxicity [7]): 0
- HepSE_liver fatty (Hepatotoxicity [8]): 0
- HepSE_hepatitis (Hepatotoxicity [9]): 0
- HepSE_jaundice (Hepatotoxicity [10]): 0
- HepSE_cholelithiasis (Hepatotoxicity [11]): 0
- HepSE_bilirubinemia (Hepatotoxicity [12]): 0
- HepSE_Combined Scores (Hepatotoxicity [13]): 0
- HepSE_hepatomegaly (Hepatotoxicity [14]): 0

Compound: COLESEVELAM HYDROCHLORIDE
- HepSE_liver disease (Hepatotoxicity [1]): 0
- HepSE_hepatic necrosis (Hepatotoxicity [2]): 0
- HepSE_cholecystitis (Hepatotoxicity [3]): 0
- HepSE_hepatic failure (Hepatotoxicity [4]): 0
- HepSE_elevated liver function tests (Hepatotoxicity [5]): 0
- HepSE_liver function tests abnormal (Hepatotoxicity [6]): 0
- HepSE_cirrhosis (Hepatotoxicity [7]): 0
- HepSE_liver fatty (Hepatotoxicity [8]): 0
- HepSE_hepatitis (Hepatotoxicity [9]): 0
- HepSE_jaundice (Hepatotoxicity [10]): 0
- HepSE_cholelithiasis (Hepatotoxicity [11]): 0
- HepSE_bilirubinemia (Hepatotoxicity [12]): 0
- HepSE_Combined Scores (Hepatotoxicity [13]): 0
- HepSE_hepatomegaly (Hepatotoxicity [14]): 0

Compound: COLESTIPOL
- HepSE_liver disease (Hepatotoxicity [1]): 0
- HepSE_hepatic necrosis (Hepatotoxicity [2]): 0
- HepSE_cholecystitis (Hepatotoxicity [3]): 1
- HepSE_hepatic failure (Hepatotoxicity [4]): 0
- HepSE_elevated liver function tests (Hepatotoxicity [5]): 0
- HepSE_liver function tests abnormal (Hepatotoxicity [6]): 0
- HepSE_cirrhosis (Hepatotoxicity [7]): 0
- HepSE_liver fatty (Hepatotoxicity [8]): 0
- HepSE_hepatitis (Hepatotoxicity [9]): 0
- HepSE_jaundice (Hepatotoxicity [10]): 0
- HepSE_cholelithiasis (Hepatotoxicity [11]): 1
- HepSE_bilirubinemia (Hepatotoxicity [12]): 0
- HepSE_Combined Scores (Hepatotoxicity [13]): 2
- HepSE_hepatomegaly (Hepatotoxicity [14]): 0

Compound: GADOBUTROL
- HepSE_liver disease (Hepatotoxicity [1]): 0
- HepSE_hepatic necrosis (Hepatotoxicity [2]): 0
- HepSE_cholecystitis (Hepatotoxicity [3]): 0
- HepSE_hepatic failure (Hepatotoxicity [4]): 0
- HepSE_elevated liver function tests (Hepatotoxicity [5]): 0
- HepSE_liver function tests abnormal (Hepatotoxicity [6]): 0
- HepSE_cirrhosis (Hepatotoxicity [7]): 0
- HepSE_liver fatty (Hepatotoxicity [8]): 0
- HepSE_hepatitis (Hepatotoxicity [9]): 0
- HepSE_jaundice (Hepatotoxicity [10]): 0
- HepSE_cholelithiasis (Hepatotoxicity [11]): 0
- HepSE_bilirubinemia (Hepatotoxicity [12]): 0
- HepSE_Combined Scores (Hepatotoxicity [13]): 0
- HepSE_hepatomegaly (Hepatotoxicity [14]): 0

Compound: GADODIAMIDE
- HepSE_liver disease (Hepatotoxicity [1]): 0
- HepSE_hepatic necrosis (Hepatotoxicity [2]): 0
- HepSE_cholecystitis (Hepatotoxicity [3]): 0
- HepSE_hepatic failure (Hepatotoxicity [4]): 0
- HepSE_elevated liver function tests (Hepatotoxicity [5]): 0
- HepSE_liver function tests abnormal (Hepatotoxicity [6]): 0
- HepSE_cirrhosis (Hepatotoxicity [7]): 0
- HepSE_liver fatty (Hepatotoxicity [8]): 0
- HepSE_hepatitis (Hepatotoxicity [9]): 0
- HepSE_jaundice (Hepatotoxicity [10]): 0
- HepSE_cholelithiasis (Hepatotoxicity [11]): 0
- HepSE_bilirubinemia (Hepatotoxicity [12]): 0
- HepSE_Combined Scores (Hepatotoxicity [13]): 0
- HepSE_hepatomegaly (Hepatotoxicity [14]): 0

Compound: GADOFOSVESET TRISODIUM
- HepSE_liver disease (Hepatotoxicity [1]): 0
- HepSE_hepatic necrosis (Hepatotoxicity [2]): 0
- HepSE_cholecystitis (Hepatotoxicity [3]): 0
- HepSE_hepatic failure (Hepatotoxicity [4]): 0
- HepSE_elevated liver function tests (Hepatotoxicity [5]): 0
- HepSE_liver function tests abnormal (Hepatotoxicity [6]): 0
- HepSE_cirrhosis (Hepatotoxicity [7]): 0
- HepSE_liver fatty (Hepatotoxicity [8]): 0
- HepSE_hepatitis (Hepatotoxicity [9]): 0
- HepSE_jaundice (Hepatotoxicity [10]): 0
- HepSE_cholelithiasis (Hepatotoxicity [11]): 0
- HepSE_bilirubinemia (Hepatotoxicity [12]): 0
- HepSE_Combined Scores (Hepatotoxicity [13]): 0
- HepSE_hepatomegaly (Hepatotoxicity [14]): 0
